Measurements reported in patent publication US11660311B2, “Cyclic dinucleotides as anticancer agents” (priority 2017, dated 2023).
Like-named read-outs stand apart in the source and are kept apart here.

Tests used:
[1] = tested on: IRF pathway in THP1-Dual STING reporter cells; assay: STING THP1 Reporter Assay, IRF pathway (secreted Lucia luciferase); format: cell-based, human; details: THP1-Dual cells, 10% human plasma, 20 hours, luciferase, 100% = 100 μM cGAMP, read-out: THP1 Reporter Assays EC50 (μM) IRF3
Description: (§1) THP1-Dual™ cells were derived from the human THP-1 monocyte cell line by stable integration of two inducible reporter constructs. To this end, THP1-Dual™ cells allow the simultaneous study of the NF-κB pathway, by monitoring the activity of SEAP, and the IRF pathway by assessing the activity of a secreted luciferase (Lucia). Both reporter proteins are readily measurable in the cell culture supernatant when using QUANTI-Blue™, a SEAP detection reagent, and QUANTI-Luc™, a luciferase detection reagent.
(§2) THP1-Dual™ cells induce the activation of NF-κB in response to STING agonists. They also trigger the IRF pathway upon stimulation with STING agonists, such as cGAMP. Here, the THP-1-Dual cells were used to assess STING binders for function on the cellular level.
(§3) Serial dilutions of compounds in DMSO were added to low volume 384 well plates at 100 nl/well using an ECHO acoustic dispenser (Labcyte, model 550) to achieve final starting concentration of 100 μM in cell suspension. […] One column of the plate was reserved for treatment with cGAMP at 100 μM for 100% activation calculation and one column for no treatment (DMSO only) for baseline activation. Plates were then incubated in 37° C. incubator at 5% CO2 for 20 hours.
(§4) In the SEAP assay, 5 μl of 2× QuantiBlue (Invivogen, cat #Rep-qb2) is added to 384 well black plates seeded with THP1 cells and incubated at 37° C. for 2 hours. Plates were read on the Envision (Perkin Elmer) at 620 nm wavelength (OD620). In the luciferase assay, 5 μl of Quantiluc (Invivogen, Rep-qlc2) is added to white 384 well plates seeded with THP1 cells and read at 5 minutes on the Envision (Perkin Elmer) using a luminescence protocol (RLU). For both cell lines, 100% activation was determined by value (RLU) of THP-1 Dual STING cells stimulated with 100 μM cGAMP (Invivogen, cat #TLRL-NACGA23-5).

[2] = tested on: NF-κB pathway in THP1-Dual STING reporter cells; assay: STING THP1 Reporter Assay, NF-κB pathway (SEAP); format: cell-based, human; details: THP1-Dual cells, 10% human plasma, 20 hours, SEAP, 100% = 100 μM cGAMP, read-out: THP1 Reporter Assays EC50 (μM) NFkB
Description: as §1, §2, §3, §4

[3] = target: T1, STING WT: His-TVMV-S-hSTING(155-341)-H232R (Homo sapiens, UniProt Q86WV6, H232R); assay: STING HTRF Binding Assay, STING WT; details: 20 nM His-tagged STING cytoplasmic domain, 200 nM fluorescein-labeled cGAMP analog probe, one hour; read-out: HTRF Binding Assays IC50 (μM) STING WT
T1 construct: STING WT: His-TVMV-S-hSTING(155-341)-H232R
T1 sequence (Q86WV6 with tags, fused parts or gaps H232R): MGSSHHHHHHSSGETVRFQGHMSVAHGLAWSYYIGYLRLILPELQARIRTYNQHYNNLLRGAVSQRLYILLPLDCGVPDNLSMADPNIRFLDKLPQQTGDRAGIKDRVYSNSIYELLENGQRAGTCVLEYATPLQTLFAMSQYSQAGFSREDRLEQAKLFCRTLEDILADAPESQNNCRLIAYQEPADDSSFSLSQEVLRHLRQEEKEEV
Description: (§5) A time resolved FRET-based competition binding assay was used to assess test article binding to STING WT and STING AQ. His-tagged STING cytoplasmic domain (WT or AQ) at a concentration of 20 nM was incubated with 2.5 nM Tb-labeled anti-His antibody, test compound, and fluorescein-labeled cGAMP analog probe (BioLog cat. no. C195) at a concentration of 200 nM (STING WT) or 40 nM (STING AQ) in PBS containing 0.005% Tween-20 and 0.1% BSA for one hour. Fluorescence at 495 nm and 520 nm was measured using an EnVision microplate reader to quantify FRET between Tb-labeled anti-His antibody and fluorescein-labeled probe. Background was defined as the signal obtained in the absence of STING protein, and background subtracted FRET ratios were normalized to the maximum signal obtained in the absence of test compound. These values were converted to a percent inhibition. Percent inhibition was determined for test compounds at 11 concentrations. The IC50, defined as the concentration of competing test compound needed to reduce specific binding of the probe by 50%, was calculated using the 4 parameter logistic equation to fit the data

[4] = target: T2, STING AQ: His-TVMV-S-hSTING(155-341)-G230A-R293Q (Homo sapiens, UniProt Q86WV6, G230A/H232R/R293Q); assay: STING HTRF Binding Assay, STING AQ; details: 20 nM His-tagged STING cytoplasmic domain, 40 nM fluorescein-labeled cGAMP analog probe, one hour; read-out: HTRF Binding Assays IC50 (μM) STING AQ
T2 construct: STING AQ: His-TVMV-S-hSTING(155-341)-G230A-R293Q
T2 sequence (Q86WV6 with tags, fused parts or gaps G230A/H232R/R293Q): as the sequence (Q86WV6 with tags, fused parts or gaps H232R) above, with G99A, R162Q counted along it
Description: as §5

| SMILES | EC50 ([1]; Homo sapiens, THP1-Dual, 20 h) [µM] | EC50 ([2]; Homo sapiens, THP1-Dual, 20 h) [µM] | IC50 [3] [µM] | IC50 [4] [µM] | EC50 [1] [µM] | EC50 [2] [µM] |
| --- | --- | --- | --- | --- | --- | --- |
| NC(=O)c1cc([C@@H]2O[C@@H]3COP(=O)(O)O[C@H]4[C@@H](F)[C@H](n5cnc6c(N)ncnc65)O[C@@H]4COP(=O)(S)O[C@H]3[C@H]2O)ccn1 (stereo partly drawn) [Example 14, 4-[(1R,6R,8S,9S,10S,15R,17R,18R)-17-(6-amino-9H-purin-9-yl)-18-fluoro-3,9-dihydroxy-3,12-dioxo-12-sulfanyl-2,4,7,11,13,16-hexaoxa-3λ^5,12λ^5-diphosphatricyclo[13.3.0.0^6,10]octadecan-8-yl]pyridine-2-carboxamide] | > 100 | > 100 | > 100 | 1.14 |  |  |
| NC(=O)c1cccc2c1nnn2[C@@H]1O[C@@H]2COP(=O)(O)O[C@H]3[C@@H](F)[C@H](n4cnc5c(N)ncnc54)O[C@@H]3COP(=O)(S)O[C@H]2[C@H]1F (single isomer, unassigned) [Example 8-1] | > 100 | > 100 | 64.6 | 1.75 |  |  |
| Nc1ncnc2c1ncn2[C@@H]1O[C@@H]2COP(=O)(S)O[C@H]3[C@@H](O)[C@H](n4cnc5c(=O)n6ccnc6[nH]c54)O[C@@H]3COP(=O)(S)O[C@H]2[C@H]1F (single isomer, unassigned) [Example 1-1] |  |  | 0.02 | 0.01 | 0.38 | 0.94 |
| Nc1ncnc2c1ncn2[C@@H]1O[C@@H]2COP(=O)(S)O[C@H]3[C@@H](O)[C@H](n4cnc5c(=O)n6ccnc6[nH]c54)O[C@@H]3COP(=O)(S)O[C@H]2[C@H]1F (single isomer, unassigned) [Example 1-2] |  |  | 0.07 | 0.01 | 2.69 | 5.35 |
